According to ChEMBL document CHEMBL4311944, “Discovery of 3-Oxabicyclo[4.1.0]heptane, a Non-nitrogen Containing Morpholine Isostere, and Its Application in Novel Inhibitors of the PI3K-AKT-mTOR Pathway” (J Med Chem, 2019):
≈ marks a conversion by molar mass, not a printed value.

Assays:
[1] = Inhibition of ligand binding to mTORC1/mTORC2 in human HuT78 cells after 2 hrs by kinobead competition binding assay; type: cell-based
[2] = Intrinsic clearance in rat hepatocytes; type: ADME, cell-based, Hepatocyte
[3] = Intrinsic clearance in human hepatocytes; type: ADME, cell-based, Hepatocyte
[4] = Intrinsic clearance in rat microsomes; type: ADME, Microsome
[5] = Intrinsic clearance in human microsomes; type: ADME, Microsome
[6] = Lipophilicity, logP of the compound by reversed phase column chromatography; type: physicochemical
[7] = Inhibition of PI3K/AKT/mTOR in human lung fibroblasts assessed as reduction in AKT phosphorylation at serine473 residue preincubated for 1 hr followed by PDGF-BB stimulation and measured after 10 mins by electrochemiluminescence method
[8] = molecular target: T1, Phosphatidylinositol 4,5-bisphosphate 3-kinase catalytic subunit delta isoform (Homo sapiens, UniProt O00329); experiment: Inhibition of PI3Kdelta (unknown origin) using PIP2 as substrate preincubated for 15 mins followed by substrate addition and measured after 1 hr by HTRF assay
T1 sequence (O00329 whole entry): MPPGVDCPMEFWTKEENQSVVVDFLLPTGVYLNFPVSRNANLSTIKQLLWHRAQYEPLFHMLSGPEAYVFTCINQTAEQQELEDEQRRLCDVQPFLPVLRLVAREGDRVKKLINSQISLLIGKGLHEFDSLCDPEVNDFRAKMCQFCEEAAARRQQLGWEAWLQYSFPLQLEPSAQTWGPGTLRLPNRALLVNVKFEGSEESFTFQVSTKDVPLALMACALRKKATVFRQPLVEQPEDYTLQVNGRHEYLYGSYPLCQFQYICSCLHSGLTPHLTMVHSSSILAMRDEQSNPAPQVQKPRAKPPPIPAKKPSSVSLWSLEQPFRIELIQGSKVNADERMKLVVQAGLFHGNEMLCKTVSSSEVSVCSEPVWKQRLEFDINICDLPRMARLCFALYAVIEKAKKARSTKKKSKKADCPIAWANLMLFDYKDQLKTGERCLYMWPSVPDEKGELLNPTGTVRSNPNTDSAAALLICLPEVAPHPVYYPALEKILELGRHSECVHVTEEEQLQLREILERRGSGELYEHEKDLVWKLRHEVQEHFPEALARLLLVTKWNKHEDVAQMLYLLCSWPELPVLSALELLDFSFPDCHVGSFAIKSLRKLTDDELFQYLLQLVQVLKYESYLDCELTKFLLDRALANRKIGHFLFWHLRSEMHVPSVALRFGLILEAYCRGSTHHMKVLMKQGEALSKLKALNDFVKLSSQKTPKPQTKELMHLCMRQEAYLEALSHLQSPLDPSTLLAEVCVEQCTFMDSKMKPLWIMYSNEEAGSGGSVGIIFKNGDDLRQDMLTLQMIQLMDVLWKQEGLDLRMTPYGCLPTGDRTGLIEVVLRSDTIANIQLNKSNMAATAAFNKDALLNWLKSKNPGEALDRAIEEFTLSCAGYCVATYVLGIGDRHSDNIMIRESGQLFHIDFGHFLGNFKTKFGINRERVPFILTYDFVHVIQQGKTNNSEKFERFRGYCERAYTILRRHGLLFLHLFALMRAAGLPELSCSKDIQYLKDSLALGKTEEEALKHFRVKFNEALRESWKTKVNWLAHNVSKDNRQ

[9] = Kinetic solubility of the compound in pH 7.4 phosphate buffered saline measured after 1 hr; type: physicochemical; settings: read-out: Kinetic_solubility
[10] = molecular target: Phosphatidylinositol 4,5-bisphosphate 3-kinase catalytic subunit alpha isoform (Homo sapiens, UniProt P42336)
Chain of Phosphatidylinositol 4,5-bisphosphate 3-kinase catalytic subunit alpha isoform (P42336 whole entry, canonical isoform): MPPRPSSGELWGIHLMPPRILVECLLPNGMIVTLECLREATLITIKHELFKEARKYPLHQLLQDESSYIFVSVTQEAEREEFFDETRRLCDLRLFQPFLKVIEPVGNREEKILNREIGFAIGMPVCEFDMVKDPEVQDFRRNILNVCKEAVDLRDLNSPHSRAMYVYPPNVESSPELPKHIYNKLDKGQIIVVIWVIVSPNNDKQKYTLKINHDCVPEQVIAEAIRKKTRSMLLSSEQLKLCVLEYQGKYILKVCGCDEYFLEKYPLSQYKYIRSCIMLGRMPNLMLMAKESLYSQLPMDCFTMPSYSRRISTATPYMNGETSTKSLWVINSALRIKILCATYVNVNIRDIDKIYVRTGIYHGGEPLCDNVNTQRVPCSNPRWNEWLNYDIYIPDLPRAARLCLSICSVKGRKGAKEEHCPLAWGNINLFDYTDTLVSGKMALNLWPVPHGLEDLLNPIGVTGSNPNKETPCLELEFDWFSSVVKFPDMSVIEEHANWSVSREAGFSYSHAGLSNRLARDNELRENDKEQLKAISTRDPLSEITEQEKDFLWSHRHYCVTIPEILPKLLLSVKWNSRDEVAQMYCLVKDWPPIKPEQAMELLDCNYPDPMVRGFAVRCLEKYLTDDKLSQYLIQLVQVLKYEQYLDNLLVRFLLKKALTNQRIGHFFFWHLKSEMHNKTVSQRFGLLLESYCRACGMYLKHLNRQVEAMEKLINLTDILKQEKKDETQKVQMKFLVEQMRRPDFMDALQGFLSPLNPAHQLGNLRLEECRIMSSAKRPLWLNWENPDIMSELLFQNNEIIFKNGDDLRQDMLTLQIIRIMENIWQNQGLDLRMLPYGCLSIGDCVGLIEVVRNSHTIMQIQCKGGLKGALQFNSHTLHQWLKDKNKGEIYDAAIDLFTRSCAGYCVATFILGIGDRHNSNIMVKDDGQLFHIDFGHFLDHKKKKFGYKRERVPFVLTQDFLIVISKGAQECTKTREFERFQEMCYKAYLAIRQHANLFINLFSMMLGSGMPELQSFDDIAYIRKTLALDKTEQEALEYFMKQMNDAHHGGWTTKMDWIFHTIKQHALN
Description: Inhibition of PI3Kalpha (unknown origin) using PIP2 as substrate preincubated for 15 mins followed by substrate addition and measured after 1 hr by HTRF assay

SMILES | pIC50 [1] | CLH [2] | CLH [3] | CL [4] | CL [5] | logP [6] | IC50 [8] | solubility kinetic at 1 h [9] | IC50 [10] | IC50 [7]
C[C@H]1COCCN1c1cc(C(C)(C)S(C)(=O)=O)nc(-c2ccc(NC(=S)NCCO)cc2)n1 | 8.4 | 2.8 mL/min/g | 0.9 mL/min/g | 0.8 mL/min/g | 0.9 mL/min/g | 3.6 | – | – | – | 0.0398 µM
CC(C)(c1cc([C@]23CCOC[C@H]2C3)nc(-c2ccc(NC(=S)NCCO)cc2)n1)S(C)(=O)=O | 8.6 | 13 mL/min/g | 5.1 mL/min/g | 1.4 mL/min/g | 3.1 mL/min/g | 3.9 | 31.6 µM | 173 µg/mL (≈ 353 µM) | 25.1 µM | 0.0316 µM
CCNC(=O)Nc1ccc(-c2nccc(N3CCOC[C@@H]3C)n2)cc1 | 6.1 | – | – | 2 mL/min/g | 1.2 mL/min/g | 3.4 | 5.01 µM | 136 µg/mL (≈ 398 µM) | 6.31 µM | 1.26 µM

Continued, in another order:

pIC50 [1] | CLH [2] | CLH [3] | CL [4] | CL [5] | logP [6] | IC50 [8] | solubility kinetic at 1 h [9] | IC50 [10] | SMILES | IC50 [7]
6.1 | – | – | 13.6 mL/min/g | 1.5 mL/min/g | 3.9 | 25.1 µM | 125 µg/mL (≈ 369 µM) | 25.1 µM | CCNC(=O)Nc1ccc(-c2nccc([C@]34CCOC[C@H]3C4)n2)cc1 | 2 µM
5.5 | – | – | 16.7 mL/min/g | 1.4 mL/min/g | 3.9 | 25.1 µM | 127 µg/mL (≈ 375 µM) | > 31.6 µM | CCNC(=O)Nc1ccc(-c2nccc([C@@]34CCOC[C@@H]3C4)n2)cc1 | 3.16 µM
